# In US9725418B2, “Pyrimidine compound” (Sumitomo Chemical Company, Limited, priority 2014, dated 2017):
# Assays:
# Assay type in all cases: in vivo
# [1] = test system: cabbage moth (Plutella xylostella); assay: Test Example 1: cabbage foliar spray, cabbage moth mortality; conditions: 120 h, 20 mL sprayed onto cabbage, second instar larvae, 25° C., after 5 days
# Protocol: (§1) A formulation of the compound of the present invention that was prepared according to Formulation Example 5 was diluted with water so that the active ingredient concentration was set to 500 ppm to prepare a testing agent solution.
# Twenty (20) mL of the above-mentioned testing medicinal solution was sprayed onto a cabbage (Brassicae oleracea) in the third to fourth leaf stage. After the testing medicinal solution was dried, the aerial part of the plant was cut, and then was installed in a polyethylene cup (volume 100 mL) together with five heads of cabbage moth (Plutella xylostella) at the second instar larval stages. The cup was held at 25° C. and after 5 days, the number of surviving insects was counted and the mortality was calculated according to the following equation. Mortality (%)=(Number of dead larvae/Number of tested larvae)×100
# [2] = test system: tobacco cutworm (Spodoptera litura); assay: Test Example 2: artificial diet, tobacco cutworm mortality; conditions: 144 h, 2 mL on artificial diet Insecta LF, fourth instar larvae, after 6 days
# Protocol: as §1
# The bottom of the polyethylene cup having 5.5 cm diameter was matted with the same size of a filter paper. Insecta LF (manufactured by NOSAN CORPORATION), an artificial diet, was sliced to 6 mm in thickness, cut into half, and then placed on the filter paper. Then, 2 mL of the test solution was poured into the polyethylene cup. After the test solution was air-dried, 5 fourth instar larvae of tobacco cutworm (Spodoptera litura) were released into the polyethylene cup and the cup was sealed with a lid. After 6 days, the number of surviving tobacco cutworm (Spodoptera litura) was counted and the mortality was calculated according to the following equation. Mortality (%)=(Number of dead larvae/Number of tested larvae)×100
# [3] = test system: summer fruit tortrix (Adoxophyes orana); assay: Test Example 3: artificial diet, summer fruit tortrix mortality; conditions: 168 h, 1 mL on artificial diet SilkMate 2S, first instar larvae, after 7 days
# Protocol: as §1
# A filter paper having a diameter of 5.5 cm was spread on the bottom of a polyethylene cup having a diameter of 5.5 cm. SilkMate 2S (manufactured by NOSAN CORPORATION), an artificial diet, was sliced to 2 mm in thickness and then placed on the filter paper. Then, 1 mL of the test solution (500 ppm) was poured into the polyethylene cup. After the test solution was air-dried, the filter paper having a diameter of 5.5 cm was put on the artificial diet, and 30 first instar larvae of summer fruit tortrix (Adoxophyes orana) were released on the filter paper, and the cup was sealed with a lid. After 7 days, the number of surviving summer fruit tortrix was counted and mortality was calculated according to the following equation. Mortality (%)=(Number of dead larvae/Number of tested larvae)×100
# [4] = test system: rice planthopper (Nilaparvata lugens); assay: Test Example 4: rice seedling spray, rice planthopper controlling value; conditions: 500 ppm, 10 mL sprayed on rice seedling; three to four instar larvae; 25° C.; after 6 days
# Protocol: (§2) A formulation of the compound of the present invention that was prepared according to Formulation Example 5 was diluted with water so that the active ingredient concentration was set to 500 ppm to prepare a testing agent solution. Rice seedling (on the developmental stage of the second true leaf) was planted in a polyethylene cup, and the above-mentioned test solutions 10 mL were sprayed. After the test solution was air-dried, twenty (20) heads of three to four instar larvae of rice planthopper (Nilaparvata lugens) were released and the plants were held in a greenhouse at 25° C. After 6 days, the number of the surviving insects that were parasitic on the leaves of the rice was examined and the controlling value was calculated by the following equation. Controlling value (%)={1−(Cb×Tai)/(Cai×Tb)}×100 wherein the symbols in the formula represent the following descriptions. Cb: Number of the insects before treatment in untreated area; Cai: Number of the surviving parasitic insects at the time of the investigation in untreated area; Tb: Number of the insects before treatment in treated area; Tai: Number of the surviving parasitic insects at the time of the investigation in treated area;
# [5] = test system: rice planthopper (Nilaparvata lugens); assay: Test Example 5: rice seedling plant foot irrigation, rice planthopper controlling value; conditions: 500 ppm, 5 mL irrigated into plant foot of rice seedling; larvae released after 7 days; counted after 6 days
# Protocol: as §2, with “solutions 5” for “solutions 10”, “were irrigated into” for “were sprayed. After”, “the plant foot, and the plants were held at 25° C. in a greenhouse for 7 days. Twenty” for “the test solution was air-dried, twenty”
# [6] = test system: cotton aphid (Aphis gossypii); assay: Test Example 6: cucumber seedling spray, cotton aphid controlling value; conditions: 500 ppm, 20 mL sprayed on cucumber seedling; 6 days post the spraying
# Protocol: A formulation of the compound of the present invention that was prepared according to Formulation Example 5 was diluted with water so that the active ingredient concentration was set to 500 ppm to prepare a testing agent solution. Cucumber seedling on the developmental stage of the first true leaf) was planted in a plastic cup, and about 30 heads of cotton aphid (Aphis gossypii) were released onto the leaves of the cucumber and allowed to stand for 1 day. The above-mentioned test solutions 20 mL were sprayed into the seedling. At 6 days post the spraying, the number of the surviving insects that were parasitic on the leaves of the cucumber was examined and the controlling value was calculated by the following equation. Controlling value (%)={1−(Cb×Tai)/(Cai×Tb)}×100 wherein the symbols in the formula represent the following descriptions. Cb: Number of the insects before treatment in untreated area; Cai: Number of the surviving parasitic insects at the time of the investigation in untreated area; Tb: Number of the insects before treatment in treated area; Tai: Number of the surviving parasitic insects at the time of the investigation in treated area;
# [7] = test system: cotton aphid (Aphis gossypii); assay: Test Example 7: cucumber root soaking, cotton aphid controlling value; conditions: 500 ppm, cucumber root soaked in 5 mL; inoculated one day after treatment; 7 days post the inoculation
# Protocol: as §1
# Soils were washed off from the cucumber seedlings (on the developmental stage of the first true leaf). The root of the cucumber seedlings was soaked in the above-mentioned test solutions 5 mL, and at one day after the treatment, thirty heads of cotton aphid (Aphis gossypii) (all stages of life) were inoculated onto the leaves of the cucumber. At 7 days post the inoculation, the number of the surviving insets that were parasitic on the leaves of the cucumber was examined, and the controlling value was calculated by the following equation. Controlling value (%)={1−(Cb×Tai)/(Cai×Tb)}×100 wherein the symbols in the formula represent the following descriptions.
# Cb: Number of the insects before treatment in untreated area;
# Cai: Number of the surviving parasitic insects at the time of the investigation in untreated area;
# Tb: Number of the insects before treatment in treated area;
# Tai: Number of the surviving parasitic insects at the time of the investigation in treated area;
# [8] = test system: two spotted spider mites (Tetranychus urticae); assay: Test Example 8: kidney bean spray, two spotted spider mite controlling value; conditions: 500 ppm, sprayed on kidney beans; female adults; 25° C.; 13 days post the treatment
# Protocol: as §1
# Forty (40) heads of female adult of two spotted spider mites (Tetranychus urticae) were released onto kidney beans (immediately after the development of the primary leaf). Next day, the above-mentioned test solutions were sprayed with a spray gun in the dripping amount of the chemical solution. The plants were placed in a thermostatic breeding room (25° C.), and at 13 days post the treatment, the number of the surviving insects was examined, and the controlling value was calculated by the following equation. Controlling value (%)={1−(Number of the surviving female adult insects in treated area}/(Number of the surviving female adult insects in untreated area)×100
# [9] = test system: housefly (Musca domestica); assay: Test Example 9: filter paper with sucrose bait, housefly mortality; conditions: 0.7 mL on filter paper, female adults, after 24 hours, read-out: Mortality of insects
# Protocol: (§3) A Formulation of the compound of the present invention that was prepared according to Formulation Example 5 was diluted with water so that the active ingredient concentration was set to 500 ppm to prepare a testing agent solution.
# The bottom of the polyethylene cup having 5.5 cm diameter was matted with the same size of a filter paper, and 0.7 mL of the above-mentioned testing agent solution was added dropwise to the filter, and 30 mg of sucrose as bait was placed in the cup uniformly. Ten (10) heads of female adult housefly (Musca domestica) were released into the polyethylene cup and the cup was covered with the lid. After 24 hours, the life and death of housefly was examined, and the number of died insects was counted and the mortality of insects was calculated by the following equation. Mortality of insects (%)=(Number of dead insects/Number of tested insects)×100
# [10] = test system: common house mosquito (Culex pipiens pollens); assay: Test Example 10: larvae in treated water, common house mosquito mortality; conditions: active ingredient concentration of 3.5 ppm in water, final instar larvae, after 24 hours, read-out: Mortality of insects
# Protocol: as §3
# The above-mentioned testing agent solution 0.7 mL was added to 100 mL of ion-exchange water (the active ingredient concentration of 3.5 ppm). Twenty (20) heads of the final instar larvae of common house mosquito (Culex pipiens pollens) was released onto the above-mentioned solution. After 24 hours, the life and death of common house mosquito was examined, and the number of died insects was counted and the mortality of insects was calculated by the following equation. Mortality of insects (%)=(Number of dead insects)/(Number of tested insects)×100
# [11] = test system: African malaria mosquito (Anopheles gambiae); assay: Test Example 11: topical application, African malaria mosquito mortality; conditions: 48 h, 167 ppm in acetone, 0.3 μL topically applied to pronotum of female adults, two days post the topical application, read-out: Mortality of insects
# Protocol: Ten (10) mg of the compound of the present invention was dissolved into 3 mL of acetone. Further the agent solution was diluted with acetone to twenty times to prepare the testing agent solution (the active ingredient concentration 167 ppm). African malaria mosquito (Anopheles gambiae) adults were subjected to an anesthetic treatment with carbon dioxide gas, and then each of 0.3 μL of the above-mentioned testing agent solution was topically applied to a pronotum of a female insect. A test was carried out 10 heads per group, and after the topical application, the insects were transferred to a cup, and fed with 5% sugar solution. At two days post the topical application, the life and death of African malaria mosquito was examined, and the mortality of insects was calculated by the following equation. Mortality of insects (%)=(Number of dead insects)/(Number of tested insects)×100
smiles,measurement,setting,value
CCc1ncnc(NCCc2ccc(C(F)(F)F)cc2)c1Cl [compound of the present invention],mortality at 500 ppm,[1],≥ 80%
same,mortality at 500 ppm,[2],≥ 80%
same,mortality at 500 ppm,[3],≥ 90%
same,Controlling value,[4],≥ 90%
same,Controlling value,[5],≥ 90%
same,Controlling value,[6],≥ 90%
same,Controlling value,[7],≥ 90%
same,Controlling value,[8],≥ 90%
same,mortality at 500 ppm,[9],100%
same,mortality at 3.5 ppm,[10],≥ 90%
same,mortality at 167 ppm,[11],≥ 90%
